Assay results published in ChEMBL document CHEMBL5137070, “N-2-(Phenylamino) Benzamide Derivatives as Dual Inhibitors of COX-2 and Topo I Deter Gastrointestinal Cancers via Targeting Inflammation and Tumor Progression” (J Med Chem, 2022).
Calls of active or inactive are those of the source. No cut-off for these calls is given here.

How the values were obtained:
[1] = tested on: HGC-27; test: Antiproliferative activity against human HGC-27 cells assessed as reduction in cell proliferation incubated for 48 hrs by MTT assay; type: functional, cell-based; conditions: HGC-27, 48 h
[2] = tested on: RKO; test: Antiproliferative activity against human RKO cells assessed as cell viability at <= 0.41 uM for 48 hrs by MTT assay; type: functional; conditions: up to 0.41 µM
[3] = tested on: HGC-27; test: Induction of cell cycle arrest in human HGC-27 cells assessed as accumulation at G2/M phase at 3.3 to 10 uM for 24 hrs by propidium iodide staining based flow cytometry; type: functional; conditions: dose 3.3-10 µM
[4] = tested on: SGC-7901; test: Antiproliferative activity against human SGC-7901 cells assessed as reduction in cell proliferation incubated for 48 hrs by MTT assay; type: functional, cell-based; conditions: SGC-7901, 48 h
[5] = tested on: RKO; test: Effect on cell morphology in human RKO cells assessed as contracted nucleus at 10 uM incubated for 48 hrs by giemsa staining based microscopic analysis; type: functional
[6] = tested on: RAW264.7; test: Inhibition of LPS induced NO production in mouse RAW264.7 cells at 6.6 uM incubated for 1 hrs followed by LPS stimulation and measured after 24 hrs by Griess reagent based assay; type: functional, cell-based; conditions: time 25.0 hrs
[7] = tested on: HGC-27; test: Effect on cell morphology in human HGC-27 cells assessed as appearance of round cells at 10 uM incubated for 48 hrs by giemsa staining based microscopic analysis; type: functional
[8] = tested on: RKO; test: Effect on cell morphology in human RKO cells assessed as condensed morphology at 10 uM incubated for 48 hrs by giemsa staining based microscopic analysis; type: functional
[9] = tested on: HGC-27; test: Induction of apoptosis in human HGC-27 cells at 1.1 to 10 uM for 24 hrs by Annexin V-FITC/PI staining based flow cytometry; type: functional, cell-based; conditions: dose 1.1-10 µM
[10] = tested on: RKO; test: Anti-migration activity against human RKO cells assessed as decrease in cell migration rate at 0.37 uM for 48 hrs by crystalline violet staining based assay; type: functional
[11] = biological target: T1, DNA topoisomerase 1 (Homo sapiens, UniProt P11387); test: Inhibition of human topoisomerase I assessed as DNA relaxation using DNA pBR322 as substrate incubated for 30 mins by ethidium bromide staining based agarose gel electrophoresis
T1 sequence (P11387 whole entry): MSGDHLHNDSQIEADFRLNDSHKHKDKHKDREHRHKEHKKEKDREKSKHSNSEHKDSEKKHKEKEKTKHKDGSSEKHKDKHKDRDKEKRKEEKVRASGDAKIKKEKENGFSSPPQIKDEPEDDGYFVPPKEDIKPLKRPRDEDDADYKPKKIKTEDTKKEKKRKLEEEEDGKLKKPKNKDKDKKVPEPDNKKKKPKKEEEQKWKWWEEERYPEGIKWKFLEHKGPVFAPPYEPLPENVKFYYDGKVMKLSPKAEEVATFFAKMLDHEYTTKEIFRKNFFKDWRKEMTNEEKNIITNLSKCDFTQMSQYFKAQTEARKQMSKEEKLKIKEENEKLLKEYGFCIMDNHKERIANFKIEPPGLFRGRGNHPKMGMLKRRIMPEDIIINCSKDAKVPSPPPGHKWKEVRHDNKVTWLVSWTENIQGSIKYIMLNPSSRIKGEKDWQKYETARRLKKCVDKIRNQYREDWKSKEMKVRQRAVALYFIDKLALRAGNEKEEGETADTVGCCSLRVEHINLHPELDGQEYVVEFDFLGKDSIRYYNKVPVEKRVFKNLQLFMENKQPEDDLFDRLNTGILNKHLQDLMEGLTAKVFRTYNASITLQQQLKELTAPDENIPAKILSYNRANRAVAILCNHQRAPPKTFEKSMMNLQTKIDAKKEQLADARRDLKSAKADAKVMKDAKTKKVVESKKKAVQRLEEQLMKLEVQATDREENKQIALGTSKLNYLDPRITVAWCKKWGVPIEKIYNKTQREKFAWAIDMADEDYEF

[12] = tested on: RAW264.7; test: Antiinflammatory activity in mouse RAW264.7 cells assessed as reduction in LPS-induced COX-2 expression at 6.6 uM incubated for 1 hrs followed by LPS stimulation and measured after 24 hrs by western blot analysis; type: functional, cell-based; conditions: time 25.0 hrs
[13] = tested on: RKO; test: Antiproliferative activity against human RKO cells assessed as clone formation at 0.04 to 3.3 uM incubated for 4 days by crystal violet staining based analysis; type: functional, cell-based; conditions: dose 0.04-3.3 µM, time 4.0 day
[14] = tested on: HT-29; test: Antiproliferative activity against human HT-29 cells assessed as reduction in cell proliferation incubated for 48 hrs by MTT assay; type: functional, cell-based; conditions: HT-29, 48 h
[15] = tested on: CT26.WT; test: Antiproliferative activity against mouse CT26.WT cells assessed as reduction in cell proliferation incubated for 48 hrs by MTT assay; type: functional, cell-based
[16] = tested on: RKO; test: Antiproliferative activity against human RKO cells assessed as reduction in cell proliferation incubated for 48 hrs by MTT assay; type: functional, cell-based
[17] = tested on: RKO; test: Induction of mitochondrial membrane loss in human RKO at 1.1 to 10 uM and measured after 36 hrs by TMRE dye based flow cytometry; type: functional, cell-based; conditions: dose 1.1-10 µM, DDE = dose-dependent effect
[18] = tested on: HGC-27; test: Antiproliferative activity against human HGC-27 cells assessed as clone formation at 0.37 to 3.3 uM incubated for 4 days by crystal violet staining based analysis; type: functional, cell-based; conditions: dose 0.37-3.3 µM, time 4.0 day
[19] = biological target: T2, DNA topoisomerase 1 (Homo sapiens) (UniProt P11387); test: Inhibition of human topoisomerase I assessed as DNA unwinding using DNA pBR322 as substrate at 2 uM incubated for 30 mins by ethidium bromide staining based agarose gel electrophoresis
T2 sequence (whole entry): T1 sequence (P11387 whole entry)

[20] = tested on: HGC-27; test: Effect on cell morphology in human HGC-27 cells assessed as lose of adherence at 10 uM incubated for 48 hrs by giemsa staining based microscopic analysis; type: functional
[21] = tested on: HGC-27; test: Effect on cell morphology in human HGC-27 cells assessed as appearance of smaller cells at 10 uM incubated for 48 hrs by giemsa staining based microscopic analysis; type: functional
[22] = tested on: RAW264.7; test: Cytotoxicity against mouse RAW264.7 cells assessed as reduction in cell viability at <=11.11 for 24 hrs by MTT assay; type: toxicity, cell-based; conditions: raw264.7, 24 h
[23] = tested on: RKO; test: Induction of apoptosis in human RKO cells at 1.1 to 10 uM for 24 hrs by Annexin V-FITC/PI staining based flow cytometry; type: functional, cell-based; conditions: dose 1.1-10 µM
[24] = tested on: RKO; test: Effect on cell morphology in human RKO cells assessed as appearance of round cells at 10 uM incubated for 48 hrs by giemsa staining based microscopic analysis; type: functional
[25] = tested on: HGC-27; test: Effect on cell morphology in human HGC-27 cells assessed as contracted nucleus at 10 uM incubated for 48 hrs by giemsa staining based microscopic analysis; type: functional
[26] = tested on: RKO; test: Effect on cell morphology in human RKO cells assessed as appearance of smaller cells at 10 uM incubated for 48 hrs by giemsa staining based microscopic analysis; type: functional
[27] = tested on: CT26.WT; test: Antiproliferative activity against mouse CT26.WT cells assessed as cell viability at 1.11 uM for 48 hrs by MTT assay; type: functional; conditions: read-out: Activity
[28] = tested on: RKO; test: Anti-migration activity against human RKO cells assessed as inhibition of cell migration at 0.37 uM and measured after 24 hrs by wound healing assay; type: functional, cell-based
[29] = tested on: RAW264.7; test: Antiinflammatory activity against LPS-stimulated mouse RAW264.7 cells assessed decrease in IL-1beta release at 6.6 uM incubated for 1 hrs followed by LPS stimulation and measured after 24 hrs by ELISA relative to control; type: functional, cell-based; conditions: time 25.0 hrs
[30] = tested on: RKO; test: Effect on cell morphology in human RKO cells assessed as lose of adherence at 10 uM incubated for 48 hrs by giemsa staining based microscopic analysis; type: functional
[31] = tested on: HGC-27; test: Induction of mitochondrial membrane loss in human HGC-27 at 1.1 to 10 uM and measured after 36 hrs by TMRE dye based flow cytometry; type: functional, cell-based; conditions: dose 1.1-10 µM, DDE = dose-dependent effect
[32] = tested on: RKO; test: Induction of cell cycle arrest in human RKO cells assessed as accumulation at G2/M phase at 3.3 to 10 uM for 24 hrs by propidium iodide staining based flow cytometry; type: functional; conditions: dose 3.3-10 µM
[33] = tested on: HGC-27; test: Anti-migration activity against human HGC-27 cells assessed as decrease in cell migration rate at 0.37 uM for 48 hrs by crystalline violet staining based assay; type: functional
[34] = tested on: HGC-27; test: Effect on cell morphology in human HGC-27 cells assessed as condensed morphology at 10 uM incubated for 48 hrs by giemsa staining based microscopic analysis; type: functional
[35] = tested on: HGC-27; test: Antiproliferative activity against human HGC-27 cells assessed as cell viability at <= 0.41 uM for 48 hrs by MTT assay; type: functional; conditions: up to 0.41 µM

IC50 [4]: 14.3 µM
IC50 [11]: 4.79 µM
IC50 [14]: 15.8 µM
IC50 [15]: 8.88 µM
inhibition [19]: 41.1%
SMILES: Cc1c(Cl)cccc1Nc1ccc(F)cc1C(=O)NCc1ccc(O)c(F)c1
IC50 [1]: 7.23 µM
Activity [2]: >80%
Activity [3]: Active
Activity [5]: Active
inhibition [6]: Active
Activity [7]: Active
Activity [8]: Active
Activity [9]: Active
Activity [10]: Active
Activity [12]: Active
Activity [13]: Active
IC50 [16]: 6.74 µM
Activity [17]: Dde
Activity [18]: Active
Activity [20]: Active
Activity [21]: Active
Activity [22]: > 80%
Activity [23]: Active
Activity [24]: Active
Activity [25]: Active
Activity [26]: Active
viability at 1.11 µM [27]: > 80%
Activity [28]: Active
Activity [29]: Active
Activity [30]: Active
Activity [31]: Dde
Activity [32]: Active
Activity [33]: Active
Activity [34]: Active
Activity [35]: >80%
